In assay [1] the target is T1, GST-ARV1-N70 (Homo sapiens, UniProt Q9H2C2).
T1 construct: Expresses amino-terminal 70 amino acids of ARV1; made in house; host or cells: E. coli BL21 (pGEX-4T1)
T1 sequence (Q9H2C2 1-70): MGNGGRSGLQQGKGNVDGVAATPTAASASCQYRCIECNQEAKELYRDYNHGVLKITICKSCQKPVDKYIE
The assay can be described thus: Lipid overlay far western, truncation. The assay is classed as binding. The settings on record: compared to ARV1-N98. The protocol:
(§1) Lipid overlays were blocked in TBST-BSA (100 mM Tris–HCl buffer, pH 7.5, 150 mM NaCl, 0.5% Tween 20, 3% bovine serum albumin) for 1 h and subsequently washed eight separate times with TBST for 2 min each. Overlays were incubated with 0.5 μg/ml GST-tagged or 6XHIS-tagged proteins in 3% TBST-BSA buffer containing 0.1% Triton X-100, for 1 h at room temperature and washed as above. Overlays were incubated with either anti-GST or anti-6XHIS monoclonal antibodies at a 1:1000 dilution in TBST-BSA for 1 h at room temperature followed by eight washes in TBST. Overlays were visualized using Immobilon Western Chemiluminescent horseradish peroxidase substrate and protein–lipid interaction was detected using a GE ImageQuant LAS 3000 imager.

Assay [2] deals with T2, 6XHIS-ARV1-N98 C58/C61A (Homo sapiens, UniProt Q9H2C2, C58A/C61A).
T2 construct: Expressing amino-terminal 98 amino acids of ARV1; made in house; host or cells: E. coli BL21 (pET-28a(+))
T2 sequence (Q9H2C2 1-98 C58A/C61A): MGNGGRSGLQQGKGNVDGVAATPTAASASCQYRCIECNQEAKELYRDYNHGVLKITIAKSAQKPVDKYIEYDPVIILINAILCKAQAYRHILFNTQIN
As to the kind of experiment: Lipid overlay far western, site-directed mutant. The settings on record: compared to the ARV1-N98 protein. The format is binding. The method, then:
as §1

Assay [3] addresses T3, 6XHIS-ARV1-N98 K54/K59A (Homo sapiens, UniProt Q9H2C2, K54A/K59A).
T3 construct: Expressing amino-terminal 98 amino acids of ARV1; made in house; host or cells: E. coli BL21 (pET-28a(+))
T3 sequence (Q9H2C2 1-98 K54A/K59A): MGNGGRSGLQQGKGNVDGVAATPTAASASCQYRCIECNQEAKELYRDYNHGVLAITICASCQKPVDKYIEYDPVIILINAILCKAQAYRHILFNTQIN
The assay can be described thus: Lipid overlay far western, site-directed mutant. The assay is classed as binding. The settings on record: compared to the ARV1-N98 protein. The protocol:
as §1

The target of assay [4] is T4, 6XHIS-ARV1-N98 K67A (Homo sapiens, UniProt Q9H2C2, K67A).
T4 construct: Expressing amino-terminal 98 amino acids of ARV1; made in house; host or cells: E. coli BL21 (pET-28a(+))
T4 sequence (Q9H2C2 1-98 K67A): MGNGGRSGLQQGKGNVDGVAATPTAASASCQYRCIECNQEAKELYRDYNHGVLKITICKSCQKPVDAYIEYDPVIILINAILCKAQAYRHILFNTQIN
The assay can be described thus: Lipid overlay far western, site-directed mutant. The format is binding. The settings on record: compared to the ARV1-N98 protein. The protocol:
as §1

Assay [5] concerns the target T5, 6XHIS-ARV1-N98 N94Q (Homo sapiens, UniProt Q9H2C2, N94Q).
T5 construct: Expressing amino-terminal 98 amino acids of ARV1; made in house; host or cells: E. coli BL21 (pET-28a(+))
T5 sequence (Q9H2C2 1-98 N94Q): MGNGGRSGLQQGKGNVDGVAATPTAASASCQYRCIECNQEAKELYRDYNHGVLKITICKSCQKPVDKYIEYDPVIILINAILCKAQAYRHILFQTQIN
The assay can be described thus: Lipid overlay far western, site-directed mutant. Particulars: compared to the ARV1-N98 protein. The format is binding. The protocol:
as §1

Assay [6] deals with T6, 6XHIS-ARV1-N98 C34/C37A (Homo sapiens, UniProt Q9H2C2, C34A/C37A).
T6 construct: Expressing amino-terminal 98 amino acids of ARV1; made in house; host or cells: E. coli BL21 (pET-28a(+))
T6 sequence (Q9H2C2 1-98 C34A/C37A): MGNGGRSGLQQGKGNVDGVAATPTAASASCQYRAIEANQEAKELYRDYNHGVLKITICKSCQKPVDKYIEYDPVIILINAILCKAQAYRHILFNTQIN
As to the kind of experiment: Lipid overlay far western, site-directed mutant. The assay is classed as binding. Particulars: compared to the ARV1-N98 protein. The protocol:
as §1

Assay [7] has as its target T7, GST-ARV1-N98 C34/C37A (Homo sapiens, UniProt Q9H2C2, C34A/C37A).
T7 construct: Expresses amino-terminal 98 amino acids of ARV1; made in house; host or cells: E. coli BL21 (pGEX-4T1)
T7 sequence (Q9H2C2 1-98 C34A/C37A): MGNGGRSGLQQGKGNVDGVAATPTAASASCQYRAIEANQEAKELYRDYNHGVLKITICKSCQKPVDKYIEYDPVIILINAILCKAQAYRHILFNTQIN
As to the kind of experiment: Liposome binding assay, site-directed mutant. The settings on record: PC:PL, sulfatide or PI(4)P liposomes. The protocol:
(§2) Lyophilized lipids were reconstituted in chloroform at 10 mg/ml and stored in glass tubes with Teflon tops at −20 °C until use. One milliliter of 10 mg/ml stock was dried under a stream of nitrogen in a glass tube until a lipid cake/film was formed. The lipid cake was then rehydrated in BLT rehydration buffer (5 mM Tris/HCl, pH 7.4, containing 150 mM NaCl) to a concentration of 1 mg/ml. Lipid suspensions were subjected to three freeze/thaw cycles using a dry ice ethanol/[…] water bath to encapsulate the buffer and improve liposome formation. The suspension and lipid extruder were equilibrated to temperature for 10 min and liposomes were extruded using […] polycarbonate membranes (Avestin). Liposomes were made by mixing stock lipid PL (1 mg/ml) with PC (10 mg/ml).
(§3) Sulfatide liposomes were generated as previously described ([94]). All lipids were resuspended in organic solvents as per manufacturer’s instructions. Liposomes were prepared with mixing PC:PE:cholesterol:sulfatides (1:1:1:4) and subsequently dried down by lyophilization to obtain lipid films. Lipids were hydrated in 20 mM Tris–HCL, pH 6.8, containing 100 mM NaCl at a concentration of 1 mg/ml.
(§4) PI(4)P liposomes were generated as described by Knodler et al. ([95]), with some modifications. Briefly, liposomes were generated at a lipid concentration of 10 mg/ml. Liposomes contained PC (60%), PI (30%), PE (8%), and PI(4)P (2%). Lipid solution was dried down and resuspended in liposome buffer (20 mM Hepes–HCL, pH 7.4, containing 1 mM EDTA and 50 mM potassium acetate). Liposomes were formed by sonication on ice.
(§5) Liposomes were serial diluted in floatation buffer (100 mM NaCl, 2 mM EDTA, pH 5.5) to a final concentration of 0.1 mg/ml. Nine hundred microliters of liposome solution was placed in clear ultracentrifuge tubes and mixed with 100 μl of 0.01 μg/ml of protein. The liposome/protein solution was incubated at room temperature for 1 h with occasional shaking. An initial 100 μl of liposome/protein solution (liposomes) was removed and the remaining 900 μl was centrifuged at 50,000g for 20 min at 4 °C. The pellet was resuspended in 800 μl of fresh floatation buffer, centrifuged as above, and 800 μl of supernatant was removed (wash 1). This was repeated a second time and again 800 μl of supernatant was removed (wash 2). The final pellet was resuspended in 100 μl of floatation buffer plus SDS treatment buffer (pellet). Thirty microliters of each fraction was run on a 15% SDS-PAGE gel and probed with an anti-GST monoclonal antibody at a 1:1500 dilution.

Assay [8] concerns the target T8, GST-ARV1-N98 K67A (Homo sapiens, UniProt Q9H2C2, K67A).
T8 construct: Expresses amino-terminal 98 amino acids of ARV1; made in house; host or cells: E. coli BL21 (pGEX-4T1)
T8 sequence (Q9H2C2 1-98 K67A): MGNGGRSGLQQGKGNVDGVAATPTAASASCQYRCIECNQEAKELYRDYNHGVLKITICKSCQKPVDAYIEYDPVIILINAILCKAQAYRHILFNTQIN
The assay can be described thus: Liposome binding assay, site-directed mutant. The settings on record: PC:PL, sulfatide liposomes. The protocol:
as §2, §3, §4, §5

The target of assay [9] is T9, GST-ARV1-N98 N94A (Homo sapiens, UniProt Q9H2C2, N94A).
T9 construct: Expresses amino-terminal 98 amino acids of ARV1; made in house; host or cells: E. coli BL21 (pGEX-4T1)
T9 sequence (Q9H2C2 1-98 N94A): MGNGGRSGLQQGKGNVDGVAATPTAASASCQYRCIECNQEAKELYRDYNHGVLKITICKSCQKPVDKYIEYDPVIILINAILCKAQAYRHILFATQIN
As to the kind of experiment: Liposome binding assay, site-directed mutant. Particulars: PC:PL, sulfatide or PI(4)P liposomes. The method, then:
as §2, §3, §4, §5

The target of assay [10] is T10, GST-ARV1-N98 K54/K59A (Homo sapiens, UniProt Q9H2C2, K54A/K59A).
T10 construct: Expresses amino-terminal 98 amino acids of ARV1; made in house; host or cells: E. coli BL21 (pGEX-4T1)
The assay can be described thus: Liposome binding assay, site-directed mutant. Particulars: PC:PL, sulfatide liposomes. The protocol:
as §2, §3, §4, §5

In assay [11] the target is T11, GST-ARV1-N98 C58/C61A (Homo sapiens, UniProt Q9H2C2, C58A/C61A).
T11 construct: Expresses amino-terminal 98 amino acids of ARV1; made in house; host or cells: E. coli BL21 (pGEX-4T1)
T11 sequence (Q9H2C2 1-98 C58A/C61A): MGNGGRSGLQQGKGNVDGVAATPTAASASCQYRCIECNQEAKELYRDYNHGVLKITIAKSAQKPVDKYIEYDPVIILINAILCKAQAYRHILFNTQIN
As to the kind of experiment: Liposome binding assay, site-directed mutant. The settings on record: PC:PL, sulfatide or PI(4)P liposomes. The method, then: as §2, §3, §4, §5

Assay [12] addresses GST-Annexin A2 (Homo sapiens, UniProt P07355). As to the kind of experiment: Lipid overlay far western (positive control protein). The format is binding. The settings on record: lipid-embedded membrane strips, incl. sphingolipid strip. The protocol:
as §1

The target of assay [13] is T12, GST-ARV1-N98 (Homo sapiens, UniProt Q9H2C2).
T12 construct: Expresses amino-terminal 98 amino acids of ARV1; made in house; host or cells: E. coli BL21 (pGEX-4T1)
T12 sequence (Q9H2C2 1-98): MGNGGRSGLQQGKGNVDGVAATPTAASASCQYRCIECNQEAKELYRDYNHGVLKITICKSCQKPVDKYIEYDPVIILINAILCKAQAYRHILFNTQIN
The assay can be described thus: Lipid overlay far western. The format is binding. Particulars: lipid-embedded membrane strips, incl. sphingolipid strip. The protocol:
as §1

Assay [14] deals with T13, GST-ARV1 (full-length ARV1) (Homo sapiens, UniProt Q9H2C2).
T13 construct: Expresses full length ARV1; made in house; host or cells: E. coli BL21 (pGEX-4T1)
T13 sequence (Q9H2C2 1-271): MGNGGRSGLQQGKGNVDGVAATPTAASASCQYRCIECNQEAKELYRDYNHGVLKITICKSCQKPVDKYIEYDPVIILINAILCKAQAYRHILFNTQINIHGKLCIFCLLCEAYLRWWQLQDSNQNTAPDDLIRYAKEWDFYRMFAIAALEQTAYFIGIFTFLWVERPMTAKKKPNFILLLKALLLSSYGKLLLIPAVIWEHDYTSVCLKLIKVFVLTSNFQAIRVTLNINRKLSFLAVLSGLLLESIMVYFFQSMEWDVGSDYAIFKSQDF
As to the kind of experiment: Lipid overlay far western. The format is binding. The settings on record: lipid-embedded membrane strips, incl. sphingolipid strip. The protocol: as §1

Consider one substance from publication PMC11952846, “The sterol-regulating human ARV1 binds cholesterol and phospholipids through its conserved ARV1 homology domain” (The Journal of Biological Chemistry, 2025).

Sequence of GST-Annexin A2 (P07355 whole entry): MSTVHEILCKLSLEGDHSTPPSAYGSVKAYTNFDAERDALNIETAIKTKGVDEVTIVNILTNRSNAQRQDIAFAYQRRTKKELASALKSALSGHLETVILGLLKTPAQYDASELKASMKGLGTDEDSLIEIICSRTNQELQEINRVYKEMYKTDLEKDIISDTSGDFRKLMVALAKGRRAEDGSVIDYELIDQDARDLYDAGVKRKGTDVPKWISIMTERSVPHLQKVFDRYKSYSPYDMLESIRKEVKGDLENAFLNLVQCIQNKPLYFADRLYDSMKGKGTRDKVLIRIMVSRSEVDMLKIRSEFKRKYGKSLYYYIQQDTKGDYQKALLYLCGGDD

With sulfatide, the “change of lipid-protein interaction” value is “loss of interaction” in assay [1]; “eliminated any interaction” in assay [2]; “abolished” in [3]; “weakened” in assay [4]; “more strongly” in assay [5]; “eliminated any interaction” in [6]. For the same substance, the liposome binding entry in [7] is “not”; in [8], “unable to bind”; in assay [9] it was “very weak”; in assay [10] it was “unable to bind”; in assay [11] it was “did not bind”. Moreover, the lipid-protein interaction entry in assay [12], in assay [13] and in assay [14] was “interacted” in each case.
